Measurements from ChEMBL document CHEMBL3045855, “ANTIPYRETIC, ANTINOCICEPTIVE AND ANTI-INFLAMMATORY ACTIVITIES OF CERTAIN -OXOBUTANOIC ACID DERIVATIVES” (2005).

Experiments:
Format in all cases: functional
Mus musculus [1] = test: Antinociceptive activity in Mus musculus Swiss (mouse) assessed as protection against acetic acid-induced writhing at 50 mg/kg, po administered 1 hr prior challenge measured for 20 min following acetic acid treatment relative to control
Rattus norvegicus [2] = test: Antipyretic activity in yeast-fevered Rattus norvegicus Sprague-Dawley (rat) assessed as reduction in rectal temperature at 50 mg/kg, po administered 17 hr post challenge measured after 120 min; set-up: scale not given: the % may be the effect or the level left
Rattus norvegicus [3] = test: Antipyretic activity in yeast-fevered Rattus norvegicus Sprague-Dawley (rat) assessed as reduction in rectal temperature at 50 mg/kg, po administered 17 hr post challenge measured after 90 min; set-up: scale not given: the % may be the effect or the level left
Rattus norvegicus [4] = test: Antipyretic activity in yeast-fevered Rattus norvegicus Sprague-Dawley (rat) assessed as reduction in rectal temperature at 50 mg/kg, po administered 17 hr post challenge measured after 60 min; set-up: scale not given: the % may be the effect or the level left
Rattus norvegicus [5] = test: Antipyretic activity in yeast-fevered Rattus norvegicus Sprague-Dawley (rat) assessed as reduction in rectal temperature at 50 mg/kg, po administered 17 hr post challenge measured after 30 min; set-up: scale not given: the % may be the effect or the level left
Rattus norvegicus [6] = test: Anti-inflammatory in Rattus norvegicus Sprague-Dawley (rat) subcutaneously implanted with cotton pellets assessed as inhibition of granuloma growth at 50 mg/kg, po measured after 7 days; settings: 168 h
Rattus norvegicus [7] = test: Anti-inflammatory activity in Rattus norvegicus Sprague-Dawley (rat) assessed as inhibition of carrageenan-induced paw edema at 100 mg/kg, po for 7 days challenged with carrageenan 1 hr post last dose on day 7 measured after 2 hr after challenge
Rattus norvegicus [8] = test: Anti-inflammatory activity in Rattus norvegicus Sprague-Dawley (rat) assessed as inhibition of carrageenan-induced paw edema at 50 mg/kg, po for 7 days challenged with carrageenan 1 hr post last dose on day 7 measured after 2 hr after challenge
Rattus norvegicus [9] = test: Antipyretic activity in yeast-fevered Rattus norvegicus Sprague-Dawley (rat) assessed as reduction in rectal temperature at 100 mg/kg, po administered 17 hr post challenge measured after 120 min; set-up: scale not given: the % may be the effect or the level left
Rattus norvegicus [10] = test: Antipyretic activity in yeast-fevered Rattus norvegicus Sprague-Dawley (rat) assessed as reduction in rectal temperature at 100 mg/kg, po administered 17 hr post challenge measured after 90 min; set-up: scale not given: the % may be the effect or the level left
Rattus norvegicus [11] = test: Antipyretic activity in yeast-fevered Rattus norvegicus Sprague-Dawley (rat) assessed as reduction in rectal temperature at 100 mg/kg, po administered 17 hr post challenge measured after 60 min; set-up: scale not given: the % may be the effect or the level left
Rattus norvegicus [12] = test: Antipyretic activity in yeast-fevered Rattus norvegicus Sprague-Dawley (rat) assessed as reduction in rectal temperature at 100 mg/kg, po administered 17 hr post challenge measured after 30 min; set-up: scale not given: the % may be the effect or the level left
Mus musculus [13] = test: Antinociceptive activity in Mus musculus Swiss (mouse) assessed as protection against acetic acid-induced writhing at 25 mg/kg, po administered 1 hr prior challenge measured for 20 min following acetic acid treatment relative to control
Rattus norvegicus [14] = test: Anti-inflammatory in Rattus norvegicus Sprague-Dawley (rat) subcutaneously implanted with cotton pellets assessed as inhibition of granuloma growth at 25 mg/kg, po measured after 7 days; settings: 168 h
Rattus norvegicus [15] = test: Anti-inflammatory activity in Rattus norvegicus Sprague-Dawley (rat) assessed as inhibition of carrageenan-induced paw edema at 25 mg/kg, po for 7 days challenged with carrageenan 1 hr post last dose on day 7 measured after 2 hr after challenge

Compound: O=C(O)CCC(=O)/C=C/c1ccc2c(c1)OCO2
- Activity (Mus musculus [1]): 69.65%
- Activity (Rattus norvegicus [2]): 2.49%
- Activity (Rattus norvegicus [3]): 3.41%
- Activity (Rattus norvegicus [4]): 4.08%
- Activity (Rattus norvegicus [5]): 0.99%
- inhibition in vivo at 50 mg/kg (Rattus norvegicus [6]): 53.3%
- inhibition in vivo at 100 mg/kg (Rattus norvegicus [7]): 68.8%
- inhibition in vivo at 50 mg/kg (Rattus norvegicus [8]): 57.5%

Compound: NC(=O)c1cc(C(=O)CCC(=O)O)ccc1O
- Activity (Mus musculus [1]): 59.24%
- Activity (Rattus norvegicus [2]): 2.44%
- Activity (Rattus norvegicus [3]): 2.71%
- Activity (Rattus norvegicus [4]): 2.11%
- Activity (Rattus norvegicus [5]): 0.86%
- inhibition in vivo at 50 mg/kg (Rattus norvegicus [6]): 34.4%
- inhibition in vivo at 100 mg/kg (Rattus norvegicus [7]): 27.5%
- inhibition in vivo at 50 mg/kg (Rattus norvegicus [8]): 13.6%

Compound: CC(=O)c1cc(C(=O)CCC(=O)O)ccc1O
- Activity (Mus musculus [1]): 61.47%
- Activity (Rattus norvegicus [2]): 2.52%
- Activity (Rattus norvegicus [3]): 2.63%
- Activity (Rattus norvegicus [4]): 1.8%
- Activity (Rattus norvegicus [5]): 1.58%
- inhibition in vivo at 50 mg/kg (Rattus norvegicus [6]): 5.2%
- inhibition in vivo at 100 mg/kg (Rattus norvegicus [7]): 22.4%
- inhibition in vivo at 50 mg/kg (Rattus norvegicus [8]): 4.11%

Compound: CC(=O)Nc1ccc(O)cc1 [ACETAMINOPHEN]
- Activity (Rattus norvegicus [9]): 6.06%
- Activity (Rattus norvegicus [10]): 5.47%
- Activity (Rattus norvegicus [11]): 5.14%
- Activity (Rattus norvegicus [12]): 4.18%

Compound: O=C([O-])Cc1ccccc1Nc1c(Cl)cccc1Cl.[Na+] [DICLOFENAC SODIUM]
- Activity (Mus musculus [13]): 72.58%
- inhibition in vivo at 25 mg/kg (Rattus norvegicus [14]): 45.4%
- inhibition in vivo at 25 mg/kg (Rattus norvegicus [15]): 47.6%
